These results are taken from a melting point compilation (Tetko et al.; mined from patent text by program, amines drawn as free bases though some values may be those of a salt).

The melting point is the temperature, or range, at which the solid turns liquid. `CCOC(=O)c1cc2c(C(F)(F)F)cc(CO)cc2n1C` showed a melting point of 158 to 159 °C.

As to `CCOC(=O)Cn1c(=O)c(=O)[nH]c2ccc3ccc(N)cc3c21`, the melting point was above 250 °C.

With `C[C@H](NC(=O)OC(C)(C)C)C(=O)C=[N+]=[N-]`, the melting point fell in the range of 99 to 102 °C.

Regarding `CCCc1c(SCCCOc2ccc(C(C)=O)c(OCCCC(=O)OCC)c2CCC)ccc(C(C)=O)c1O`, the melting point was 65 to 66 °C.

The compound `Cc1nc(N)sc1S(=O)(=O)N(C)CCO` showed a melting point of 118 °C.

As for `CS(=O)(=O)ON=C(Cl)c1ccccc1`, the melting point was in the range of 106 to 108 °C.

`COc1cc2cc(C(=O)N3CC(COS(C)(=O)=O)c4c3cc([N+](=O)[O-])c3ccccc43)[nH]c2c(OC)c1OC` (stereo unspecified) gave a melting point of 214 °C.

In the case of `Cc1cc2nc(Cl)sc2cc1C`, the melting point was found to be 175 °C.

For `O=[N+]([O-])CS(=O)(=O)c1c(F)c(F)cc(F)c1F`, the melting point fell in the range of 86 to 87 °C.

As to `COC(=O)C(=O)NCC(C#Cc1ccccc1)c1ccc(OC)c(OC2CCCC2)c1` (racemic), the melting point lay within 120 to 124 °C.

`CCOCCS(=O)(=O)c1c(Cl)nc(Cl)nc1Cl`: the melting point lay in the range of 133 to 134 °C.

The compound `O=S1(=O)NCN(C2CC2)c2ccc(C(F)(F)F)cc21` displayed a melting point of 155 to 157 °C.

`CC(=O)N1CCCC(=O)c2ccc(Cl)cc2CCC1=O`: the melting point fell in the range of 154 to 156 °C.

As to `Cc1sc(N)nc1-c1ccc2c(c1)CC(=O)N2`, the melting point is above 250 °C.

`CC(C)(C)C1=CC(C=O)(C(C)(C)C)NN1` (stereo unspecified): the melting point is 216 to 219 °C.

For `Cc1nc(N2CCCC(Cc3cccnc3)C2=O)sc1C(=O)NCc1ccccc1` (stereo unspecified), the melting point lay in the range of 140 to 141 °C.

Consider `Oc1c(Br)cc(-c2cccc3sc4c(Br)cccc4c23)cc1Br`, for which the melting point was 118 to 119 °C.

`Cc1noc(NS(=O)(=O)c2cccc(F)c2)c1Br` returned a melting point of 125 to 128 °C.

With `CC(C)N(CCSc1ccc(Cl)cc1)C(=O)Oc1ccccc1`, the melting point fell in the range of 54 to 56 °C.

`COc1ccc2c(c1)CCN1C[C@H]3CCCN[C@H]3C[C@@H]21` came in with a melting point of 125 to 127 °C.

With `CCN1CCN(C2c3c(C)c(N4CCN(c5ccc(OC)cc5)CC4)c(C)c(C)c3OC2(C)C)CC1` (stereo unspecified), the melting point lay within 98 to 100 °C.

`COc1cccc(-c2nc(Cl)nc(Cl)n2)c1` came in with a melting point of 114 °C.

As to `O=C1COc2ccc(C3=Nn4cnnc4SC3c3ccccn3)cc2N1` (stereo unspecified), the melting point fell in the range of 216 to 218 °C.

In the case of `CCSc1c(C#N)nn(-c2c(Cl)cc(C(F)(F)F)cc2Cl)c1Br`, the melting point was 134 to 140 °C.

In the case of `COc1ccc(-c2[nH]c3cn[nH]c(=O)c3c2Cl)cc1OC(C)C`, the melting point was 291 to 299 °C.

`O=c1[nH]c2ccncc2c2nc(-c3ccco3)nn12` showed a melting point of 312 to 313 °C.

The compound `CC(C)Cc1nn(C)c(=O)c2c(SCCCO)n(Cc3cccc4ccccc34)nc12` showed a melting point of 141 to 142 °C.

`COc1ccc(C=CC(=O)c2ccco2)c(OC)c1` returned a melting point of 57 to 59 °C.

Take `COc1cccc2c1C13CCN(C(=O)C4CC4)C(C2)C1CCC(=O)C3` (stereo unspecified): the melting point fell in the range of 144 to 147 °C.

Regarding `OCc1ccc(-c2ccc3nnn(Cc4ccc(F)cc4)c3n2)cc1`, the melting point was 210 to 213 °C.

In turn, `O=[N+]([O-])c1ccc(S(=O)(=O)Nc2ccc(O)cc2)cc1` came in with a melting point of 197 to 198 °C.

Take `Nc1c(O)c2ccccc2oc1=O`: the melting point was found to be 400 °C.

Compound `CCS(=O)(=O)Nc1cc(-c2ncnc(C(F)F)c2Cl)c(Cl)cc1Cl` showed a melting point of 140 to 142 °C.

Turning to `O=C(O)COc1ccc2c(=O)c3c(F)cccc3oc2c1Cl`, the melting point came out at 300 °C.

With `CCOC(=O)C(Cc1ccc(OC)cc1)(C(=O)OCC)c1cc2cc(Br)ccc2s1`, the melting point lay within 58 to 60 °C.

Compound `CCCCOc1c(CNC(=O)OC(C)(C)C)n(CC(C)C)c(=O)c2ccc(-c3cccs3)cc12` came in with a melting point of 130 to 131 °C.
